Laboratory results from US10752584B2 (EMORY UNIVERSITY, priority 2016, dated 2020).

What was measured:
Type in all cases: cell-based
[1] = Cellular toxicity assay in HepG2 cells; conditions: human, read-out: Cytotoxicity
Method: (§1) The toxicity of the compounds was assessed in Vero, human PBM, CEM (human lymphoblastoid), MT-2, and HepG2 cells, as described previously (see Schinazi R. F., Sommadossi J.-P., Saalmann V., Cannon D. L., Xie M.-Y., Hart G. C., Smith G. A. & Hahn E. F. Antimicrob. Agents Chemother. 1990, 34, 1061-67). Cycloheximide was included as positive cytotoxic control, and untreated cells exposed to solvent were included as negative controls. The cytotoxicity IC50 was obtained from the concentration-response curve using the median effective method described previously (see Chou T.-C. & Talalay P. Adv. Enzyme Regul. 1984, 22, 27-55; Belen'kii M. S. & Schinazi R. F. Antiviral Res. 1994, 25, 1-11).

[2] = Cellular toxicity assay in human PBM cells; conditions: human, human PBM cells, read-out: Cytotoxicity
Method: as §1

[3] = system: wild type HBV; experiment: Anti-HBV assay in AD-38 cell line; conditions: Hepatitis B virus, AD-38 cells, HBV in culture supernatant; for EC50: read-out: Anti-HBV activity EC50; for EC90: read-out: Anti-HBV activity EC90
Method: The anti-HBV activity of the compounds was determined by treating the AD-38 cell line carrying wild type HBV under the control of tetracycline (see Ladner S. K., Otto M. J., Barker C. S., Zaifert K., Wang G. H., Guo J. T., Seeger C. & King R. W. Antimicrob. Agents Chemother. 1997, 41, 1715-20). Removal of tetracycline from the medium [Tet (−)] results in the production of HBV. The levels of HBV in the culture supernatant fluids from cells treated with the compounds were compared with that of the untreated controls. Control cultures with tetracycline [Tet (+)] were also maintained to determine the basal levels of HBV expression. 3TC was included as positive control.
The median effective concentrations (EC50) ranges of several of the compounds described herein against HBV are shown in Table 3: […]

[4] = Cellular toxicity assay in Vero cells; conditions: African green monkey, read-out: Cytotoxicity
Method: as §1

[5] = Cellular toxicity assay in CEM cells; conditions: human, CEM lymphoblastoid cells, read-out: Cytotoxicity
Method: as §1

SMILES | CC50 [1] [µM] | CC50 [2] [µM] | EC50 [3] [µM] | EC90 [3] [µM] | CC50 [4] [µM] | CC50 [5] [µM]
Cc1c(C(=O)C(=O)NCc2c[nH]nn2)c(C)n(C)c1C(=O)Nc1ccc(F)c(F)c1 [Compound 38, 4-(2-(((1H-1,2,3-triazol-4-yl)methyl)amino)-2-oxoacetyl)-N-(3,4-difluorophenyl)-1,3,5-trimethyl-1H-pyrrole-2-carboxamide] | 85 | > 100 | 0.001 to 0.009 | 0.1 to 0.9 | 45 | 29
Cn1cc(C(=O)C(=O)Nc2ccccc2)cc1C(=O)Nc1ccc(F)c(F)c1 [Compound 28, N-(3,4-difluorophenyl)-1-methyl-4-(2-oxo-2-(phenylamino)acetyl)-1H-pyrrole-2-carboxamide] | > 100 | – | 0.01 to 0.09 | 1 to 9 | 13.4 | > 100
C#CCNC(=O)C(=O)c1c(C)c(C(=O)Nc2ccncc2)n(C)c1C [Compound 63, 1,3,5-trimethyl-4-(2-oxo-2-(prop-2-yn-1-ylamino)acetyl)-N-(pyridin-4-yl)-1H-pyrrole-2-carboxamide] | > 100 | > 100 | 0.1 to 0.9 | 1 to 9 | > 100 | > 100
CCN(CC)C(=O)C(=O)c1c(C)c(C(=O)Nc2ccc(F)c(F)c2)n(C)c1C [Compound 45, 4-(2-(diethylamino)-2-oxoacetyl)-N-(3,4-difluorophenyl)-1,3,5-trimethyl-1H-pyrrole-2-carboxamide] | 75 | 90 | 0.1 to 0.9 | 1 to 9 | 47 | 36
Cc1c(C(=O)C(=O)Nc2ccccn2)c(C)n(C)c1C(=O)Nc1ccccc1 [Compound 52, 1,3,5-trimethyl-4-(2-oxo-2-(pyridin-2-ylamino)acetyl)-N-phenyl-1H-pyrrole-2-carboxamide] | > 100 | > 100 | 0.01 to 0.09 | 0.1 to 0.9 | > 100 | 50
Cc1c(C(=O)C(=O)N2CCN(C)CC2)c(C)n(C)c1C(=O)Nc1ccc(F)c(F)c1 [Compound 44, N-(3,4-difluorophenyl)-1,3,5-trimethyl-4-(2-(4-methylpiperazin-1-yl)-2-oxoacetyl)-1H-pyrrole-2-carboxamide] | 90 | 92 | 0.1 to 0.9 | 1 to 9 | > 100 | 17
Cn1cc(C(=O)C(=O)NOC2CCCC2)cc1C(=O)Nc1ccc(F)c(F)c1 [Compound 27, 4-(2-((cyclopentyloxy)amino)-2-oxoacetyl)-N-(3,4-difluorophenyl)-1-methyl-1H-pyrrole-2-carboxamide] | > 100 | – | 0.01 to 0.09 | 1 to 9 | 80.1 | 37.9
C#CCNC(=O)C(=O)c1c(C)c(C(=O)Nc2ccc(OC(F)(F)F)cc2)n(C)c1C [Compound 54, 1,3,5-trimethyl-4-(2-oxo-2-(prop-2-yn-1-ylamino)acetyl)-N-(4-(trifluoromethoxy)phenyl)-1H-pyrrole-2-carboxamide] | – | 3 | 1 to 9 | – | 6 | 4
C#CCNS(=O)(=O)c1cc(C(=O)Nc2ccc(F)c(F)c2)n(C)c1 [Compound 17, N-(3,4-Difluorophenyl)-1-methyl-4-(N-(prop-2-yn-1-yl)sulfamoyl)-1H-pyrrole-2-carboxamide] | – | > 100 | 0.1 to 0.9 | 1 to 9 | 41 | 53
Cn1cc(C(=O)C(=O)NCC#N)cc1C(=O)Nc1ccc(F)c(F)c1 [Compound 30, 4-(2-((cyanomethyl)amino)-2-oxoacetyl)-N-(3,4-difluorophenyl)-1-methyl-1H-pyrrole-2-carboxamide] | > 100 | – | 1 to 9 | 1 to 9 | 91.4 | > 100
